# Measurements published in patent US11446287B2, “Compounds and methods for EP300 or CBP modulation and indications therefor” (Opna Immuno-Oncology SA, priority 2019, dated 2022).
# Target: T1, Recombinant human EP300 containing the bromodomain (EP300-BD (1040-1161)) (Homo sapiens, UniProt Q09472)
# T1 construct: Recombinant human EP300 bromodomain (EP300-BD (1040-1161)); made in house; host or cells: E. coli BL21-CodonPlus (DE3), modified pET vector
# T1 sequence (Q09472 1040-1161): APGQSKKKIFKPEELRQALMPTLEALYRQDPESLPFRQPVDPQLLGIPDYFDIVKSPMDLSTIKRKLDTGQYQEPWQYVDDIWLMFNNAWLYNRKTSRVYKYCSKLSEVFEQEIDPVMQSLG
# Experiment: EP300 Alphascreen binding assay
# Method in brief: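 Displacement of a biotinylated acetyl-K56 histone H3 peptide from the N-His bromodomain construct (1040-1161) measured by AlphaScreen proximity, beads at 7.5 μg/ml final, read 60 min after addition. Protein, peptide and compound first incubated 1 h at room temperature, pH 7.5 HEPES buffer; IC50 by four-parameter logistic fit.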
row,Structure (SMILES),IC50 [nM]
1,"CCOc1cc(C(=O)O)cc(OCC)c1-n1cc(-c2cncc(Cl)c2)c2ncc(-c3c(C)noc3C)cc21 [P-0193, 4-(3-(5-chloropyridin-3-yl)-6-(3,5-dimethylisoxazol-4-yl)-1H-pyrrolo[3,2-b]pyridin-1-yl)-3,5-diethoxybenzoic acid]",0.1 to 1000
2,"CCOc1cc(C(=O)O)cc(OCC)c1-n1cc(-c2ccc(OC)cc2F)c2ncc(-c3c(C)noc3C)cc21 [P-0194, 4-(6-(3,5-dimethylisoxazol-4-yl)-3-(2-fluoro-4-methoxyphenyl)-1H-pyrrolo[3,2-b]pyridin-1-yl)-3,5-diethoxybenzoic acid]",0.1 to 1000
3,"CCOc1cc(C(=O)O)cc(OCC)c1-n1cc(-c2cnn(C)c2)c2ncc(-c3c(C)noc3C)cc21 [P-0195, 4-(6-(3,5-dimethylisoxazol-4-yl)-3-(1-methyl-1H-pyrazol-4-yl)-1H-pyrrolo[3,2-b]pyridin-1-yl)-3,5-diethoxybenzoic acid]",0.1 to 1000
4,"Cc1noc(C)c1-c1cnc2c(-c3ccccc3)cn(-c3ccc(C(=O)O)cc3OC(F)(F)F)c2c1 [P-0196, 4-(6-(3,5-dimethylisoxazol-4-yl)-3-phenyl-1H-pyrrolo[3,2-b]pyridin-1-yl)-3-(trifluoromethoxy)benzoic acid]",0.1 to 1000
5,"Cc1noc(C)c1-c1cnc2c(c1)c(-c1c(Cl)cc(C(=O)O)cc1Cl)cn2[C@@H](C)c1ccccn1 [P-0197, (S)-3,5-dichloro-4-(5-(3,5-dimethylisoxazol-4-yl)-1-(1-(pyridin-2-yl)ethyl)-1H-pyrrolo[2,3-b]pyridin-3-yl)benzoic acid]",0.1 to 1000
6,"Cc1noc(C)c1-c1cnc2c(c1)c(-c1c(Cl)cc(C(=O)O)cc1OC(F)(F)F)cn2C(C1CC1)C1CC1 [P-0198, 3-chloro-4-(1-(dicyclopropylmethyl)-5-(3,5-dimethylisoxazol-4-yl)-1H-pyrrolo[2,3-b]pyridin-3-yl)-5-(trifluoromethoxy)benzoic acid]",0.1 to 1000
7,"Cc1noc(C)c1-c1cnc2c(c1)c(-c1ccc(C(=O)O)cc1OC(F)(F)F)cn2C(CC#N)C1CC1 (stereo not drawn) [P-0199, 4-(1-(2-cyano-1-cyclopropylethyl)-5-(3,5-dimethylisoxazol-4-yl)-1H-pyrrolo[2,3-b]pyridin-3-yl)-3-(trifluoromethoxy)benzoic acid]",0.1 to 1000
8,"Cc1noc(C)c1-c1cnc2c(c1)c(-c1ccc(C(=O)O)cc1OC(F)(F)F)cn2C(CC#N)C1CCCC1 (stereo not drawn) [P-0200, 4-(1-(2-cyano-1-cyclopentylethyl)-5-(3,5-dimethylisoxazol-4-yl)-1H-pyrrolo[2,3-b]pyridin-3-yl)-3-(trifluoromethoxy)benzoic acid]",0.1 to 1000
9,"CCOc1cc(C(=O)O)cc(OCC)c1-n1cc(-c2cnc(OC)nc2)c2ncc(-c3c(C)noc3C)cc21 [P-0201, 4-(6-(3,5-dimethylisoxazol-4-yl)-3-(2-methoxypyrimidin-5-yl)-1H-pyrrolo[3,2-b]pyridin-1-yl)-3,5-diethoxybenzoic acid]",0.1 to 1000
10,"Cc1noc(C)c1-c1cnc2c(c1)c(-c1ccc(C(=O)O)cc1OC(F)(F)F)cn2S(=O)(=O)C1CC1 [P-0202, 4-(1-(cyclopropylsulfonyl)-5-(3,5-dimethylisoxazol-4-yl)-1H-pyrrolo[2,3-b]pyridin-3-yl)-3-(trifluoromethoxy)benzoic acid]",0.1 to 1000
11,"Cc1noc(C)c1-c1cnc2c(c1)c(-c1ccc(C(=O)O)cc1OC(F)(F)F)cn2-c1ccnc(C(C)C)c1 [P-0203, 4-(5-(3,5-dimethylisoxazol-4-yl)-1-(2-isopropylpyridin-4-yl)-1H-pyrrolo[2,3-b]pyridin-3-yl)-3-(trifluoromethoxy)benzoic acid]",0.1 to 1000
12,"Cc1noc(C)c1-c1cnc2c(c1)c(-c1ccc(C(=O)O)cc1OC(F)(F)F)cn2-c1cnccc1C#N [P-0204, 4-(1-(4-cyanopyridin-3-yl)-5-(3,5-dimethylisoxazol-4-yl)-1H-pyrrolo[2,3-b]pyridin-3-yl)-3-(trifluoromethoxy)benzoic acid]",0.1 to 1000
13,"CCOc1cc(C(=O)O)cc(F)c1-n1cc(-c2ccccc2)c2ncc(-c3c(C)noc3C)cc21 [P-0205, 4-(6-(3,5-dimethylisoxazol-4-yl)-3-phenyl-1H-pyrrolo[3,2-b]pyridin-1-yl)-3-ethoxy-5-fluorobenzoic acid]",0.1 to 1000
14,"CCOc1cccc(C#N)c1-n1cc(-c2ccccc2)c2ncc(-c3c(C)noc3C)cc21 [P-0206, 2-(6-(3,5-dimethylisoxazol-4-yl)-3-phenyl-1H-pyrrolo[3,2-b]pyridin-1-yl)-3-ethoxybenzonitrile]",0.1 to 1000
15,"Cc1noc(C)c1-c1cnc2c(-c3ccccc3)cn(-c3c(Cl)cccc3C#N)c2c1 [P-0207, 3-chloro-2-(6-(3,5-dimethylisoxazol-4-yl)-3-phenyl-1H-pyrrolo[3,2-b]pyridin-1-yl)benzonitrile]",1000 to 8000
16,"CCOc1cc(C(=O)O)cc(OCC)c1-n1cc(C2=CCC(F)(F)CC2)c2ncc(-c3c(C)noc3C)cc21 [P-0208, 4-(3-(4,4-difluorocyclohex-1-en-1-yl)-6-(3,5-dimethylisoxazol-4-yl)-1H-pyrrolo[3,2-b]pyridin-1-yl)-3,5-diethoxybenzoic acid]",0.1 to 1000
17,"CCOc1cc(C(=O)O)cc(OCC)c1-n1cc(-c2ccc(F)c(Cl)c2)c2ncc(-c3c(C)noc3C)cc21 [P-0209, 4-(3-(3-chloro-4-fluorophenyl)-6-(3,5-dimethylisoxazol-4-yl)-1H-pyrrolo[3,2-b]pyridin-1-yl)-3,5-diethoxybenzoic acid]",0.1 to 1000
18,"CCOc1cc(C(=O)O)cc(OCC)c1-n1cc(CC2CCC2)c2ncc(-c3c(COC)noc3C)cc21 [P-0210, 4-(3-(cyclobutylmethyl)-6-(3-(methoxymethyl)-5-methylisoxazol-4-yl)-1H-pyrrolo[3,2-b]pyridin-1-yl)-3,5-diethoxybenzoic acid]",0.1 to 1000
19,"Cc1cnccc1-n1cc(-c2ccc(C(=O)O)cc2OC(F)(F)F)c2cc(-c3c(C)noc3C)cnc21 [P-0211, 4-(5-(3,5-dimethylisoxazol-4-yl)-1-(3-methylpyridin-4-yl)-1H-pyrrolo[2,3-b]pyridin-3-yl)-3-(trifluoromethoxy)benzoic acid]",0.1 to 1000
20,"Cc1noc(C)c1-c1cnc2c(c1)c(-c1ccc(C(=O)O)cc1OC(F)(F)F)cn2C1CCS(=O)(=O)CC1 [P-0212, 4-(5-(3,5-dimethylisoxazol-4-yl)-1-(1,1-dioxidotetrahydro-2H-thiopyran-4-yl)-1H-pyrrolo[2,3-b]pyridin-3-yl)-3-(trifluoromethoxy)benzoic acid]",0.1 to 1000
21,"Cc1noc(C)c1-c1cnc2c(c1)c(-c1ccc(C(=O)O)cc1OC(C)C)cn2C(C1CC1)C1CC1 [P-0213, 4-(1-(dicyclopropylmethyl)-5-(3,5-dimethylisoxazol-4-yl)-1H-pyrrolo[2,3-b]pyridin-3-yl)-3-isopropoxybenzoic acid]",0.1 to 1000
22,"Cc1noc(C)c1-c1cnc2c(c1)c(-c1ccc(C(=O)O)cc1OCC(F)(F)F)cn2C(C1CC1)C1CC1 [P-0214, 4-(1-(dicyclopropylmethyl)-5-(3,5-dimethylisoxazol-4-yl)-1H-pyrrolo[2,3-b]pyridin-3-yl)-3-(2,2,2-trifluoroethoxy)benzoic acid]",0.1 to 1000
23,"Cc1noc(C)c1-c1cnc2c(c1)c(-c1ccc(C(=O)O)cc1OC(F)(F)F)cn2-c1ncccc1C#N [P-0215, 4-(1-(3-cyanopyridin-2-yl)-5-(3,5-dimethylisoxazol-4-yl)-1H-pyrrolo[2,3-b]pyridin-3-yl)-3-(trifluoromethoxy)benzoic acid]",0.1 to 1000
24,"Cc1noc(C)c1-c1cnc2c(c1)c(-c1ccc(C(=O)O)cc1OC(F)(F)F)cn2-c1ncccc1C#CC1CC1 [P-0216, 4-(1-(3-(cyclopropylethynyl)pyridin-2-yl)-5-(3,5-dimethylisoxazol-4-yl)-1H-pyrrolo[2,3-b]pyridin-3-yl)-3-(trifluoromethoxy)benzoic acid]",0.1 to 1000
25,"CCOc1cc(C(=O)O)cc(OCC)c1-n1cc(-c2ccc(C#N)cc2F)c2ncc(-c3c(C)noc3C)cc21 [P-0217, 4-(3-(4-cyano-2-fluorophenyl)-6-(3,5-dimethylisoxazol-4-yl)-1H-pyrrolo[3,2-b]pyridin-1-yl)-3,5-diethoxybenzoic acid]",0.1 to 1000
26,"CCOc1cc(C(=O)O)cc(OCC)c1-n1cc(-c2ccc(C(=O)NC3CC3)cc2)c2ncc(-c3c(C)noc3C)cc21 [P-0218, 4-(3-(4-(cyclopropylcarbamoyl)phenyl)-6-(3,5-dimethylisoxazol-4-yl)-1H-pyrrolo[3,2-b]pyridin-1-yl)-3,5-diethoxybenzoic acid]",0.1 to 1000
27,"COC(=O)c1cc(OC)c(-n2cc(-c3ccccc3)c3ncc(-c4c(C)noc4C)cc32)c(OC)c1 [P-0219, methyl 4-(6-(3,5-dimethylisoxazol-4-yl)-3-phenyl-1H-pyrrolo[3,2-b]pyridin-1-yl)-3,5-dimethoxybenzoate]",0.1 to 1000
28,"COc1cc(C(=O)O)cc(OC)c1-n1cc(-c2ccccc2)c2ncc(-c3c(C)noc3C)cc21 [P-0220, 4-(6-(3,5-dimethylisoxazol-4-yl)-3-phenyl-1H-pyrrolo[3,2-b]pyridin-1-yl)-3,5-dimethoxybenzoic acid]",0.1 to 1000
29,"COc1cccc(OC)c1-n1cc(-c2ccccc2)c2ncc(-c3c(C)noc3C)cc21 [P-0221, 4-(1-(2,6-dimethoxyphenyl)-3-phenyl-1H-pyrrolo[3,2-b]pyridin-6-yl)-3,5-dimethylisoxazole]",0.1 to 1000
30,"CCOc1cc(C(=O)O)cc(OCC)c1-n1cc(-c2ccnc(F)c2)c2ncc(-c3c(C)noc3C)cc21 [P-0222, 4-(6-(3,5-dimethylisoxazol-4-yl)-3-(2-fluoropyridin-4-yl)-1H-pyrrolo[3,2-b]pyridin-1-yl)-3,5-diethoxybenzoic acid]",0.1 to 1000
